Consider one compound from patent publication US4863932A, “Squalene oxide cyclase inhibitors and therapeutic use thereof” (Somatogenetics International, Inc., priority 1988, dated 1989).

One test has as its system cholesterol synthesis. The test can be described thus: Inhibition of cholesterol synthesis.
The next test relates to fatty acid synthesis. Put plainly: Inhibition of fatty acid synthesis. As to conditions: compared with its inhibition of cholesterol synthesis.

On to `CC1(C)[C@@H](O)CC[C@]2(C)[C@@H](CO)CCC[C@@H]12` (relative stereo) [JW I-60, 4,4,10beta-trimethyl-9beta-hydroxymethyl-trans-decal-3beta-ol], for which the “inhibition of cholesterol synthesis” value with cholesterol synthesis is “weak inhibitor of cholesterol synthesis”. In addition, in the test on fatty acid synthesis, the “inhibition of fatty acid synthesis” value is given as “much more effective inhibitor of fatty acid synthesis”.
